Experimental data published in PubChem BioAssay (NCI).
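At the GI50, growth is halved. The concentration for full growth arrest is given as TGI.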

Assays:
Assay in all cases: DTP human tumour cell line panel, 384-well format
NCI-H23 lung = test system: NCI-H23 lung
KM12 colon = test system: KM12 colon
MALME-3M melanoma = test system: MALME-3M melanoma
DU-145 prostate = test system: DU-145 prostate
M14 melanoma = test system: M14 melanoma
786-0 renal = test system: 786-0 renal
NCI/ADR-RES ovarian = test system: NCI/ADR-RES ovarian
HCT-116 colon = test system: HCT-116 colon
EKVX NSCLC = test system: EKVX NSCLC
MOLT-4 leukemia = test system: MOLT-4 leukemia
HT29 colon = test system: HT29 colon
HOP-92 NSCLC = test system: HOP-92 NSCLC
OVCAR-8 ovarian = test system: OVCAR-8 ovarian
RPMI-8226 leukemia = test system: RPMI-8226 leukemia
U251 glioblastoma = test system: U251 glioblastoma
SF-295 CNS = test system: SF-295 CNS
BT-549 breast = test system: BT-549 breast
SK-OV-3 ovarian = test system: SK-OV-3 ovarian
UACC-257 melanoma = test system: UACC-257 melanoma
HOP-62 NSCLC = test system: HOP-62 NSCLC
OVCAR-3 ovarian = test system: OVCAR-3 ovarian
TK-10 renal = test system: TK-10 renal
A549 NSCLC = test system: A549 NSCLC
HCT-15 colon = test system: HCT-15 colon
A498 renal = test system: A498 renal
SK-MEL-28 melanoma = test system: SK-MEL-28 melanoma
CAKI-1 renal = test system: CAKI-1 renal
UACC-62 melanoma = test system: UACC-62 melanoma
NCI-H226 lung = test system: NCI-H226 lung

CCCCCCCC/C=C/CCCCCCCC(=O)OC[C@H]1O[C@@H](n2ccc(N)nc2=O)C(F)(F)[C@@H]1O
GI50 (NCI-H23 lung): < 10 nM
TGI (NCI-H23 lung): < 10 nM
GI50 (KM12 colon): < 10 nM
TGI (KM12 colon): 15300 nM
GI50 (MALME-3M melanoma): < 10 nM
TGI (MALME-3M melanoma): 15100 nM
GI50 (DU-145 prostate): < 10 nM
TGI (DU-145 prostate): 2390 nM
GI50 (M14 melanoma): < 10 nM
TGI (M14 melanoma): < 10 nM
GI50 (786-0 renal): < 10 nM
TGI (786-0 renal): < 10 nM
GI50 (NCI/ADR-RES ovarian): < 10 nM
TGI (NCI/ADR-RES ovarian): < 10 nM
GI50 (HCT-116 colon): < 10 nM
TGI (HCT-116 colon): 10200 nM
GI50 (EKVX NSCLC): 57.6 nM
TGI (EKVX NSCLC): 15400 nM
GI50 (MOLT-4 leukemia): < 10 nM
TGI (MOLT-4 leukemia): < 10 nM
GI50 (HT29 colon): < 10 nM
TGI (HT29 colon): 8700 nM
GI50 (HOP-92 NSCLC): 10.5 nM
TGI (HOP-92 NSCLC): 22400 nM
GI50 (OVCAR-8 ovarian): < 10 nM
TGI (OVCAR-8 ovarian): < 10 nM
GI50 (RPMI-8226 leukemia): < 10 nM
TGI (RPMI-8226 leukemia): < 10 nM
GI50 (U251 glioblastoma): < 10 nM
TGI (U251 glioblastoma): < 10 nM
GI50 (SF-295 CNS): < 10 nM
TGI (SF-295 CNS): 18.5 nM
GI50 (BT-549 breast): < 10 nM
TGI (BT-549 breast): < 10 nM
GI50 (SK-OV-3 ovarian): < 10 nM
TGI (SK-OV-3 ovarian): 2420 nM
GI50 (UACC-257 melanoma): < 10 nM
TGI (UACC-257 melanoma): 92 nM
GI50 (HOP-62 NSCLC): < 10 nM
TGI (HOP-62 NSCLC): < 10 nM
GI50 (OVCAR-3 ovarian): < 10 nM
TGI (OVCAR-3 ovarian): 16700 nM
GI50 (TK-10 renal): > 100000 nM
TGI (TK-10 renal): > 100000 nM
GI50 (A549 NSCLC): < 10 nM
TGI (A549 NSCLC): 11900 nM
GI50 (HCT-15 colon): < 10 nM
TGI (HCT-15 colon): 59700 nM
GI50 (A498 renal): < 10 nM
TGI (A498 renal): 14900 nM
GI50 (SK-MEL-28 melanoma): < 10 nM
TGI (SK-MEL-28 melanoma): 51500 nM
GI50 (CAKI-1 renal): < 10 nM
TGI (CAKI-1 renal): 2990 nM
GI50 (UACC-62 melanoma): < 10 nM
TGI (UACC-62 melanoma): < 10 nM
GI50 (NCI-H226 lung): 24.8 nM
TGI (NCI-H226 lung): 83.2 nM
